Laboratory results as given in ChEMBL document CHEMBL4823243, “Synergistic induction of apoptosis in resistant head and neck carcinoma and leukemia by alkoxyamide-based histone deacetylase inhibitors” (Eur J Med Chem, 2021).
The source made the active and inactive calls. The rule behind the calls is not given here.

How the values were obtained:
[1] = target: T1, Histone deacetylase (Homo sapiens) (UniProt Q13547+O15379+Q9UBN7+Q92769+Q9UQL6+Q8WUI4+Q9BY41+Q96DB2+P56524+Q9UKV0+Q969S8); assay: Inhibition of HDAC in human CAL-27 cells assessed as combination index at 0.4 uM measured in presence of 2 uM cDDP by MTT-based Chou-Talalay method; format: cell-based
Histone deacetylase 2 = Histone deacetylase 2 (Homo sapiens, UniProt Q92769); assay: Inhibition of recombinant human full length C-terminal GST-fusion tagged HDAC2 expressed in baculovirus infected insect cells using Boc-Lys(Ac)-AMC as substrate preincubated for 5 mins followed by substrate addition measured after 90 mins by fluorimetry; format: cell-based
[2] = target: T1, Histone deacetylase (Homo sapiens); assay: Inhibition of HDAC in human Cal27CisR cells assessed as combination index at 0.4 uM measured in presence of 10 uM cDDP by MTT-based Chou-Talalay method; format: cell-based
[3] = target: T1, Histone deacetylase (Homo sapiens); assay: Inhibition of HDAC in human Cal27CisR cells assessed as combination index at 0.1 uM measured in presence of 20 uM cDDP by MTT-based Chou-Talalay method; format: cell-based
[4] = target: T1, Histone deacetylase (Homo sapiens); assay: Inhibition of HDAC in human Cal27CisR cells assessed as potentiation of cisplatin-induced cytotoxicity by measuring fold reduction in cisplatin IC50 at 0.3 to 0.5 uM pretreated for 48 hrs followed by cisplatin addition and measured after 72 hrs by MTT assay relative to cisplatin alone; format: cell-based; details: dose 0.3-0.5 µM, time 120.0 hrs
CAL-27 [5] = assay: Induction of apoptosis in human CAL-27 cells assessed as caspase 3 activation at 0.3 uM pretreated for 24 hrs followed by cisplatin treatment and further incubated for 18 hrs by Caspase3/7 detection reagent based assay; format: functional, cell-based; details: time 42.0 hrs
Cal27CisR = assay: Induction of apoptosis in human Cal27CisR cells assessed as caspase 3 activation at 0.3 uM pretreated for 24 hrs followed by cisplatin treatment and further incubated for 18 hrs by Caspase3/7 detection reagent based assay; format: functional, cell-based; details: time 42.0 hrs
[6] = target: T1, Histone deacetylase (Homo sapiens); assay: Inhibition of HDAC in human Cal27CisR cells assessed as combination index at 0.2 uM measured in presence of 10 uM cDDP by MTT-based Chou-Talalay method; format: cell-based
[7] = target: T1, Histone deacetylase (Homo sapiens); assay: Inhibition of HDAC in human CAL-27 cells assessed as combination index at 0.35 uM measured in presence of 5 uM cDDP by MTT-based Chou-Talalay method; format: cell-based
[8] = target: T1, Histone deacetylase (Homo sapiens); assay: Inhibition of HDAC in human Cal27CisR cells assessed as combination index at 0.6 uM measured in presence of 10 uM cDDP by MTT-based Chou-Talalay method; format: cell-based
[9] = target: T1, Histone deacetylase (Homo sapiens); assay: Inhibition of HDAC in human Cal27CisR cells assessed as combination index at 0.3 uM measured in presence of 20 uM cDDP by MTT-based Chou-Talalay method; format: cell-based
[10] = target: T1, Histone deacetylase (Homo sapiens); assay: Inhibition of HDAC in human CAL-27 cells assessed as combination index at 0.35 uM measured in presence of 10 uM cDDP by MTT-based Chou-Talalay method; format: cell-based
CAL-27 [11] = assay: Induction of apoptosis in cisplatin resistant human CAL-27 cells assessed as caspase 3 activation at 0.3 uM pretreated for 24 hrs followed by cisplatin treatment and further incubated for 18 hrs by Caspase3/7 detection reagent based assay; format: functional, cell-based; details: time 42.0 hrs
[12] = target: T1, Histone deacetylase (Homo sapiens); assay: Inhibition of HDAC in human Cal27CisR cells assessed as combination index at 0.1 uM measured in presence of 50 uM cDDP by MTT-based Chou-Talalay method; format: cell-based
[13] = target: T1, Histone deacetylase (Homo sapiens); assay: Inhibition of HDAC in human Cal27CisR cells assessed as combination index at 0.5 uM measured in presence of 20 uM cDDP by MTT-based Chou-Talalay method; format: cell-based
[14] = target: T1, Histone deacetylase (Homo sapiens); assay: Inhibition of HDAC in human CAL-27 cells assessed as combination index at 0.4 uM measured in presence of 10 uM cDDP by MTT-based Chou-Talalay method; format: cell-based
[15] = target: T1, Histone deacetylase (Homo sapiens); assay: Inhibition of HDAC in human CAL-27 cells assessed as combination index at 0.25 uM measured in presence of 5 uM cDDP by MTT-based Chou-Talalay method; format: cell-based
[16] = Inhibition of Class 1/2b HDAC in human HL-60 cells by HDAC-Glo assay; format: cell-based
[17] = target: T1, Histone deacetylase (Homo sapiens); assay: Inhibition of HDAC in human Cal27CisR cells assessed as combination index at 0.1 uM measured in presence of 10 uM cDDP by MTT-based Chou-Talalay method; format: cell-based
[18] = target: T1, Histone deacetylase (Homo sapiens); assay: Inhibition of HDAC in human CAL-27 cells assessed as combination index at 0.3 uM measured in presence of 2 uM cDDP by MTT-based Chou-Talalay method; format: cell-based
[19] = target: T1, Histone deacetylase (Homo sapiens); assay: Inhibition of HDAC in human CAL-27 cells assessed as combination index at 0.35 uM measured in presence of 2 uM cDDP by MTT-based Chou-Talalay method; format: cell-based
HL-60 = assay: Antiproliferative activity against human HL-60 cells assessed as reduction in cell viability for 72 hrs by Celltitre-Glo luminescent assay; format: functional, cell-based; details: HL-60, 72 h
[20] = target: T1, Histone deacetylase (Homo sapiens); assay: Inhibition of HDAC in human Cal27CisR cells assessed as combination index at 0.2 uM measured in presence of 50 uM cDDP by MTT-based Chou-Talalay method; format: cell-based
Histone deacetylase [21] = assay: Inhibition of HDAC in human CAL-27 cells assessed as potentiation of cisplatin-induced cytotoxicity by measuring cisplatin IC50 at 0.3 to 0.5 uM pretreated for 48 hrs followed by cisplatin addition and measured after 72 hrs by MTT assay (reference value: 3.57 uM); format: cell-based
[22] = target: T1, Histone deacetylase (Homo sapiens); assay: Inhibition of HDAC in human CAL-27 cells assessed as combination index at 0.1 uM measured in presence of 10 uM cDDP by MTT-based Chou-Talalay method; format: cell-based
[23] = target: T1, Histone deacetylase (Homo sapiens); assay: Inhibition of HDAC in human CAL-27 cells assessed as combination index at 0.3 uM measured in presence of 5 uM cDDP by MTT-based Chou-Talalay method; format: cell-based
Histone deacetylase [24] = assay: Inhibition of HDAC in human Cal27CisR cells assessed as potentiation of cisplatin-induced cytotoxicity by measuring cisplatin IC50 at 0.3 to 0.5 uM pretreated for 48 hrs followed by cisplatin addition and measured after 72 hrs by MTT assay (reference value: 3.57 uM); format: cell-based
[25] = target: T1, Histone deacetylase (Homo sapiens); assay: Inhibition of HDAC in human CAL-27 cells assessed as combination index at 0.4 uM measured in presence of 5 uM cDDP by MTT-based Chou-Talalay method; format: cell-based
[26] = target: T1, Histone deacetylase (Homo sapiens); assay: Inhibition of HDAC in human CAL-27 cells assessed as combination index at 0.2 uM measured in presence of 10 uM cDDP by MTT-based Chou-Talalay method; format: cell-based
[27] = target: T1, Histone deacetylase (Homo sapiens); assay: Inhibition of HDAC in human CAL-27 cells assessed as combination index at 0.3 uM measured in presence of 10 uM cDDP by MTT-based Chou-Talalay method; format: cell-based
[28] = target: T1, Histone deacetylase (Homo sapiens); assay: Inhibition of HDAC in human Cal27CisR cells assessed as combination index at 0.4 uM measured in presence of 50 uM cDDP by MTT-based Chou-Talalay method; format: cell-based

Histone deacetylase 2, sequence (Q92769 whole entry, the tested form may be a part): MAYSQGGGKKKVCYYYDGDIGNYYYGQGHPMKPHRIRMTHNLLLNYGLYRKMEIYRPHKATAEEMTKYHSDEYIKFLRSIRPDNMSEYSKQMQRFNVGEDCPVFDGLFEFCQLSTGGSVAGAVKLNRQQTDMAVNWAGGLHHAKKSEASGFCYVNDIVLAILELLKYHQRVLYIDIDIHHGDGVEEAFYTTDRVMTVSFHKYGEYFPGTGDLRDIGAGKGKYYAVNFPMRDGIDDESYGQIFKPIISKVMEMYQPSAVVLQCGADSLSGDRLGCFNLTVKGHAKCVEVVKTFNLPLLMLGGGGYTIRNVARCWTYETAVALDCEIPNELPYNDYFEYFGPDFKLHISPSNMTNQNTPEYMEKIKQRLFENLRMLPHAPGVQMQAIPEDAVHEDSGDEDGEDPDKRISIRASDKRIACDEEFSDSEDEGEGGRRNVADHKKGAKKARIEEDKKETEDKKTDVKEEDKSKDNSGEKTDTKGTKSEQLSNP

Row | CI [1] | IC50 (Histone deacetylase 2) [nM] | CI [2] | CI [3] | CI [6] | CI [7] | CI [8] | CI [9] | CI [10] | CI [12] | CI [13] | CI [14] | CI [15] | IC50 [16] [nM] | CI [17] | CI [18] | Structure (SMILES) | Ratio IC50 [4] | Activity (CAL-27 [5]) | Activity (Cal27CisR) | Activity (CAL-27 [11]) | also measured
1 | 0.48 | 92 | 0.11 | 5.25 | 0.27 | 0.05 | 0.1 | 0.37 | 0.02 | 0.32 | 0.33 | 0.02 | 0.94 | 73.2 | 2.62 | 0.88 | O=C(CCCCCONC(=O)c1ccc2ccccc2n1)NO | 13.2 | Active | Active | Active | CI [19]: 0.68; IC50 (HL-60): 270 nM; CI [20]: 0.5; IC50 (Histone deacetylase [21]): 1120 nM; CI [22]: 0.22; CI [23]: 0.06; IC50 (Histone deacetylase [24]): 3670 nM; CI [25]: 0.04; CI [26]: 0.04; CI [27]: 0.02; CI [28]: 0.47
2 | 0.14 | 57 | 0.59 | 2.3 | 2.72 | 0.05 | 0.19 | 0.29 | 0.02 | 0.36 | 0.21 | 0.02 | 0.11 |  | 4.3 | 0.35 | O=C(CCCCCONC(=O)c1cc2ccccc2[nH]1)NO | 7.36 | Active | Active | Active | CI [19]: 0.21; CI [20]: 0.47; IC50 (Histone deacetylase [21]): 1310 nM; CI [22]: 0.22; CI [23]: 0.06; IC50 (Histone deacetylase [24]): 6590 nM; CI [25]: 0.04; CI [26]: 0.04; CI [27]: 0.02; CI [28]: 0.47
3 |  | 759 |  |  |  |  |  |  |  |  |  |  |  | 85.1 |  |  | O=C(CCCCCONC(=O)c1nccc2ccccc12)NO |  |  |  |  | IC50 (HL-60): 561 nM
